Results taken from publication PMC8424629, “Chemical “Butterfly Effect” Explaining the Coordination Chemistry and Antimicrobial Properties of Clavanin Complexes” (Inorganic Chemistry, 2021).
Converted amounts (≈) assume the structure as drawn. Where two headings read alike, the source gives them in different places.

How the values were obtained:
[1] = tested on: Escherichia coli ATCC 25922; assay: microbe, parasite or virus in culture; settings: ATCC25922, 24 h
[2] = assay type: physicochemical
Protocol: (§1) All peptides ([…]-COOH, […]-COOH, […]
(§2) were purchased from KareBay Biochem (USA) (certified purity: 98 %) and were used as received.
(§3) The carbonate-free stock solutions of 0.1 M NaOH were purchased from Sigma-Aldrich and then potentiometrically standardized with the primary standard potassium hydrogen phthalate (99.9 % purity). […]
(§4) Stability constants for proton, Zn(II) and Cu(II) complexes were calculated from pH -metric titration curves carried out over the pH range 2-11 at T = 298 K in water solution of 4 mM HClO 4 and ionic strength 40 mM (SDS), using a total volume of 3 ml. The potentiometric titrations were performed using a Metrohm Titrando 905 titrator and a Mettler Toledo InLab Micro comb ined pH electrode. The thermostabilized glass -cell was equipped with a magnetic stirring system, a microburette delivery tube and an inlet –outlet tube for argon.
(§5) Solutions were titrated with 0.1 M carbonate-free NaOH. The electrodes were calibrated daily f or hydrogen ion concentration by titrating HClO 4 with NaOH under the same experimental conditions as above. The purities and the exact concentrations of the ligand solutions were determined by the Gran method. 1 The ligand concentration was 0.5 mM. The Zn(II) and Cu(II) to ligand ratio was 1 : 1.
(§6) The standard potential and the slope of the electrode couple were computed by means of Glee 2 program. The HYPERQUAD 20063 program was used for the stability constant calculations. The standard deviations were computed by HYPERQUAD 2006 and refer to random errors only. The constants for the hydrolytic Zn(II ) species

[3] = assay type: binding
Protocol: as §1, §2, §3, §4, §5, §6

[4] = tested on: Escherichia coli ATCC 25922; settings: ATCC 25922, 24 h
[5] = tested on: Enterococcus faecalis ATCC 29212; settings: ATCC 29212, 24 h
[6] = tested on: MRSA Staphylococcus aureus ATCC 43300; settings: ATCC 43300, 24 h
[7] = tested on: Candida albicans ATCC 10231; settings: ATCC 10231, 24 h
[8] = tested on: Candida albicans ATCC 10231; assay: microbe, parasite or virus in culture; settings: ATCC10231, 24 h
[9] = tested on: Pseudomonas aeruginosa ATCC 27853; assay: MIC, broth microdilution, reference strain; assay type: cell-based; settings: ATCC27853, microdilution 0.5-256 µg/mL, TSB, 24 h, 37 °C, OD 580 nm
[10] = tested on: Enterococcus faecalis ATCC 29212; assay: microbe, parasite or virus in culture; settings: ATCC29212, 24 h
[11] = tested on: MRSA Staphylococcus aureus ATCC 43300; assay: microbe, parasite or virus in culture; settings: 24 h
[12] = potentiometry pH 2-11, 298 K, 4 mM HClO4, I = 40 mM SDS, ligand 0.5 mM, SD in parentheses
[13] = potentiometry, 298 K, I = 40 mM SDS, Cu(II):L 1:1, 0.5 mM, SD in parentheses
[14] = potentiometry, 298 K, I = 40 mM SDS, Zn(II):L 1:1, 0.5 mM, SD in parentheses

Molecule: CNC(C)C1CCC(N)C(OC2C(N)CC(N)C(OC3OCC(C)(O)C(NC)C3O)C2O)O1 (stereo not shown) [gentamicin]
- MIC [1]: 2 µg/mL (≈ 4.19 µM)

Molecule: H-AFKLLGRIIHHVGNFVYGFSHVF-OH [Clavanin D]
- pKa, species H2L [2]: 10.08
- pKa, species H3L [2]: 8.68
- pKa, species H4L [2]: 7.81
- pKa, species H5L [2]: 7.24
- pKa, species H6L [2]: 5.26
- pKa, species HL [2]: 11.13
- log β H2L [2, 12]: 21.21 (4)
- log β H3L [2, 12]: 29.89 (5)
- log β H4L [2, 12]: 37.70 (5)
- log β H5L [2, 12]: 44.94 (5)
- log β H6L [2, 12]: 50.20 (5)
- log β HL [2, 12]: 11.13 (6)
- pKa, line CuH2L [3]: 6.95
- pKa, line CuH3L [3]: 6.00
- pKa, line CuH4L [3]: 5.23
- pKa, line CuH-1L [3]: 9.92
- pKa, line CuH-2L [3]: 10.54
- pKa, line CuH-3L [3]: 11.91
- pKa, line CuHL [3]: 7.94
- pKa, line CuL [3]: 8.79
- pKa, line ZnH2L [3]: 8.22
- log β CuH2L [3, 13]: 30.38 (2)
- log β CuH3L [3, 13]: 37.33 (2)
- log β CuH4L [3, 13]: 43.33 (1)
- log β CuH5L [3, 13]: 48.56 (3)
- log β CuH-1L [3, 13]: 3.73 (3)
- log β CuH-2L [3, 13]: -6.81 (4)
- log β CuH-3L [3, 13]: -18.72 (1)
- log β CuHL [3, 13]: 22.44 (3)
- log β CuL [3, 13]: 13.65 (3)
- log β ZnH2L [3, 14]: 25.94 (2)
- log β ZnH3L [3, 14]: 34.16 (3)
- log β ZnH5L [3, 14]: 47.63 (12)
- log β ZnL [3, 14]: 6.73 (14)
- MIC [4]: 64 µg/mL
- MIC [5]: 128 µg/mL
- MIC [6]: 128 µg/mL
- MIC [7]: 16 µg/mL

Molecule: C[C@@H]1[C@H](O)[C@@H](C)/C=C/C=C/C=C/C=C/C=C/C=C/C=C/[C@H](O[C@@H]2O[C@H](C)[C@@H](O)[C@H](N)[C@@H]2O)C[C@@H]2O[C@](O)(C[C@@H](O)C[C@@H](O)[C@H](O)CC[C@@H](O)C[C@@H](O)CC(=O)O[C@H]1C)C[C@H](O)[C@H]2C(=O)O [amphotericin B]
- MIC [8]: 1 µg/mL (≈ 1.08 µM)

Molecule: C[C@H]1COc2c(N3CCN(C)CC3)c(F)cc3c(=O)c(C(=O)O)cn1c23 [levofloxacin]
- MIC [9]: 1 µg/mL (≈ 2.77 µM)
- MIC [10]: 4 µg/mL (≈ 11.1 µM)
- MIC [11]: 1 µg/mL (≈ 2.77 µM)
